Laboratory results published in patent publication US11566022B2, “3-(5-methoxy-1-oxoisoindolin-2-yl)piperidine-2,6-dione derivatives and uses thereof” (NOVARTIS AG, priority 2019, dated 2023).
Where two headings read alike, the source gives them in different places.

Target: HiBit-WIZ fusion protein (Homo sapiens, UniProt O95785+Q96SW2)
Test: Quantification of WIZ protein levels in HiBit tag fusion protein assay (WIZ HiBit assay in 293T cells)
Format: cell-based
Parameters: Dmax: dose or concentration left out as unconfirmed
Settings: for Dmax / remaining activity / remaining activity at up to 25 µM: HEK-293T, 293T cells; for remaining activity: read-out: WIZ Amax, DMSO-normalized, curve-fitted percentage of WIZ-HiBit remaining at 25 uM; for DC50: WIZ HiBit assay in 293T cells, 10-point, 5-fold dose response, highest concentration 25 μM, about 18 hours, read-out: WIZ AC50; for remaining activity at up to 25 µM: DMSO-normalized, curve-fitted percentage of WIZ-HiBit remaining at 25 uM, read-out: WIZ Amax
[1] = read-out: % degradation of WIZ (100-Amax), 100 minus Amax
[2] = 100 minus Amax, read-out: % degradation of WIZ (100-Amax)

Sequence of HiBit-WIZ fusion protein (O95785 whole entry, the tested form may be a part): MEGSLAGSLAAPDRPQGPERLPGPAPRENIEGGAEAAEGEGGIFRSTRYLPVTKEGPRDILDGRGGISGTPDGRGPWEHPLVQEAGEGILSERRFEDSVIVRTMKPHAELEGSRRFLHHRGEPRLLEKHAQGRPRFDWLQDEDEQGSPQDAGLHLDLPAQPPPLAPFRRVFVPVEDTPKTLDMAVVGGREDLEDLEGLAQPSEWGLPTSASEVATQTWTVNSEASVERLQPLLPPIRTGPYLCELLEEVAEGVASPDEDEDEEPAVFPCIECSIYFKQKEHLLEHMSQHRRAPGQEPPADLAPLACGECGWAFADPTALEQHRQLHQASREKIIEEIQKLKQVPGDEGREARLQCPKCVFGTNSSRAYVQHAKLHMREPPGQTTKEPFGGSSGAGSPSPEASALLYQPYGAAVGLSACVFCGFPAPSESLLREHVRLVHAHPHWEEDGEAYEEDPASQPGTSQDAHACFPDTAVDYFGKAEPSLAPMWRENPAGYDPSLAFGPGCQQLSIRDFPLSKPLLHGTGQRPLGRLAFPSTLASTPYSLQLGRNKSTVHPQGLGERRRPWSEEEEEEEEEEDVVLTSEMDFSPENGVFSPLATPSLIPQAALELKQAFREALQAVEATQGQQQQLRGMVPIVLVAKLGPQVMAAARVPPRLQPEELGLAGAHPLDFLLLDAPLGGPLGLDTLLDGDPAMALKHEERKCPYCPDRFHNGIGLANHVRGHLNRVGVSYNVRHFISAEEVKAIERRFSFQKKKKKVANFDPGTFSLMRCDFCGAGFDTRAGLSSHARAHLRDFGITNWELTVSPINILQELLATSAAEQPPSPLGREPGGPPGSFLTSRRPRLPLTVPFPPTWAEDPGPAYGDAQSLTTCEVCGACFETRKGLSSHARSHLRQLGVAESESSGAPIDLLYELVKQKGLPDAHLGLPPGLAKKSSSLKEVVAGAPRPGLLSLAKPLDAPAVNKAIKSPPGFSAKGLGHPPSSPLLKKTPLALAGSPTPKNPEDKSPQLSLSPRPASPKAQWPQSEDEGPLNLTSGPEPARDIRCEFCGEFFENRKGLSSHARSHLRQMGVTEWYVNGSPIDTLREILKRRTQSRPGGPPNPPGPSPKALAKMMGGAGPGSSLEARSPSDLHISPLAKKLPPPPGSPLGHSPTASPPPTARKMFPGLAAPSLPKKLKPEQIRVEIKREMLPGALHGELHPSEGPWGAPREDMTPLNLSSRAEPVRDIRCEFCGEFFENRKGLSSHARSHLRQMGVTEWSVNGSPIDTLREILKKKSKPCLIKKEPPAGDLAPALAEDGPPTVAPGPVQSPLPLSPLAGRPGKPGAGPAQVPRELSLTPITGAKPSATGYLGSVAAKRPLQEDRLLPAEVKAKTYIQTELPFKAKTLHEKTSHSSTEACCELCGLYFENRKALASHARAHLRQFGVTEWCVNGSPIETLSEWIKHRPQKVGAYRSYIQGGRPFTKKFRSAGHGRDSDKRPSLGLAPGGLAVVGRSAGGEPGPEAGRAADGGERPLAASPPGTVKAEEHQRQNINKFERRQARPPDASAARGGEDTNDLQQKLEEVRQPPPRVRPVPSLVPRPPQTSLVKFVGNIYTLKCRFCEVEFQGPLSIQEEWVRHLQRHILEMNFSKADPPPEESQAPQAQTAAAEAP
Sequence of HiBit-WIZ fusion protein (Q96SW2 whole entry, the tested form may be a part): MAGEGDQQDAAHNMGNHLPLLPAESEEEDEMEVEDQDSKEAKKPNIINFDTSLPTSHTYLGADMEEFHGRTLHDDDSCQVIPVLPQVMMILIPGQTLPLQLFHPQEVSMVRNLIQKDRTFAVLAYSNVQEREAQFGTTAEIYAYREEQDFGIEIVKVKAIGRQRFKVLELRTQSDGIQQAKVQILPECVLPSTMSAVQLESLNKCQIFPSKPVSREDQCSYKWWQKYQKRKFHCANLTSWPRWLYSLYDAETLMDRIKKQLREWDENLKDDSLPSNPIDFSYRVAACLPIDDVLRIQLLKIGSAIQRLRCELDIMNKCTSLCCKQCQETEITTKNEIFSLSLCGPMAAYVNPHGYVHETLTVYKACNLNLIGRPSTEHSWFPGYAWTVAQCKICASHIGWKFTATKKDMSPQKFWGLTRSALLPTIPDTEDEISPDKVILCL
Sequence of HiBit-WIZ fusion protein (Q16531 whole entry partner, the tested form may be a part): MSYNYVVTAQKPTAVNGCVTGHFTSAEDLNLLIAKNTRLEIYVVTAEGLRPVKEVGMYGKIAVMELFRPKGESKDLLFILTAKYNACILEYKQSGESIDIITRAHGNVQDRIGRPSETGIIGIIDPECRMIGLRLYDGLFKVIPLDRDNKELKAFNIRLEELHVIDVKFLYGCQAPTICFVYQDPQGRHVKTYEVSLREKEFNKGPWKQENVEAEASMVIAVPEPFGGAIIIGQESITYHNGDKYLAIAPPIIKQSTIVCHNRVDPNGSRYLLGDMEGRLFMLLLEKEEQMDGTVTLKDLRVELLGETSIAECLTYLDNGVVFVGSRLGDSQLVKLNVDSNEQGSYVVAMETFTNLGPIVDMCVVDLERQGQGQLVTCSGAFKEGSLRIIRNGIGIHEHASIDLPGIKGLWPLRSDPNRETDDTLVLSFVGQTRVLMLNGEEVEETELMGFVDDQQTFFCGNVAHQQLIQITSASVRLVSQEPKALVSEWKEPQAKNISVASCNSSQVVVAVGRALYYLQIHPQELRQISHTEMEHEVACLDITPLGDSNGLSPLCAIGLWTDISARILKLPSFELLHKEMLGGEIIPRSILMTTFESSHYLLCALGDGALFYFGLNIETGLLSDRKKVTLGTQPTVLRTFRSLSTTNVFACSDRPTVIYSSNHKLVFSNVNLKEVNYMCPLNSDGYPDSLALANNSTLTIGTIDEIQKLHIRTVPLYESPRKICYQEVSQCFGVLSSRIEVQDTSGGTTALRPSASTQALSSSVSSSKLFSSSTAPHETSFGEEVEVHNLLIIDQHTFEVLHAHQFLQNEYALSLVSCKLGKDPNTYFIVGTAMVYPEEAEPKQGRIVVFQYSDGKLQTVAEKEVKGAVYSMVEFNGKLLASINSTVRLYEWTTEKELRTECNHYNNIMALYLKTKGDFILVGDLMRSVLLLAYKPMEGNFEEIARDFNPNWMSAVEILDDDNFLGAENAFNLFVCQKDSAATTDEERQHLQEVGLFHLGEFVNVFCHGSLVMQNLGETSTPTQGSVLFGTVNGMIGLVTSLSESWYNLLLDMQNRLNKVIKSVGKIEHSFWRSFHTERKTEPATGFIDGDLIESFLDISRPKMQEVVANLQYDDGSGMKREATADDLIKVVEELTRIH

Compound	Dmax [1]	remaining activity	DC50	Dmax [2]	remaining activity at up to 25 µM
CCc1cc(CN2CCCC[C@@H]2COc2ccc3c(c2)CN(C2CCC(=O)NC2=O)C3=O)ccc1C1CCN(CC)CC1 (stereo partly drawn) [Compound I-157, 3-(5-(((R)-1-(3-ethyl-4-(1-ethylpiperidin-4-yl)benzyl)piperidin-2-yl)methoxy)-1-oxoisoindolin-2-yl)piperidine-2,6-dione]	63%	37%	160 nM	–	–
CC(C)(C)c1ccc(CN2CCCC[C@@H]2COc2ccc3c(c2)CN(C2CCC(=O)NC2=O)C3=O)cc1 (some centres unmarked) [Compound I-158]	–	–	0.083 nM	94.1%	5.93%
O=C1CCC(N2Cc3cc(OC[C@H]4CCCCN4Cc4ccc(N5CCCCC5)cc4)ccc3C2=O)C(=O)N1 (stereo partly drawn) [Compound I-161, 3-(1-oxo-5-(((R)-1-(4-(piperidin-1-yl)benzyl)piperidin-2-yl)methoxy)isoindolin-2-yl)piperidine-2,6-dione]	–	–	0.37 nM	91.5%	8.45%
COC12CC(CN3CCCC[C@@H]3COc3ccc4c(c3)CN(C3CCC(=O)NC3=O)C4=O)(C1)C2 (stereo partly drawn) [Compound I-163, 3-(5-(((R)-1-((3-methoxybicyclo[1.1.1]pentan-1-yl)methyl)piperidin-2-yl)methoxy)-1-oxoisoindolin-2-yl)piperidine-2,6-dione]	–	–	29 nM	70.5%	29.5%
CCN1CCN(c2ccc(F)cc2CN2CCCC[C@@H]2COc2ccc3c(c2)CN(C2CCC(=O)NC2=O)C3=O)CC1 (stereo partly drawn) [Compound I-169, 3-(5-(((R)-1-(2-(4-ethylpiperazin-1-yl)-5-fluorobenzyl)piperidin-2-yl)methoxy)-1-oxoisoindolin-2-yl)piperidine-2,6-dione]	84.6%	15.4%	34 nM	–	–
O=C1CCC(N2Cc3cc(OC[C@H]4CCCCN4Cc4ccc(C5(C(F)(F)F)CC5)cc4)ccc3C2=O)C(=O)N1 (stereo partly drawn) [Compound I-173, 3-(1-oxo-5-(((R)-1-(4-(1-(trifluoromethyl)cyclopropyl)benzyl)piperidin-2-yl)methoxy)isoindolin-2-yl)piperidine-2,6-dione]	–	–	0.22 nM	94.3%	5.71%
O=C1CCC(N2Cc3cc(OC[C@H]4CCCCN4Cc4cccc5c4NCCO5)ccc3C2=O)C(=O)N1 (stereo partly drawn) [Compound I-178, 3-(5-(((R)-1-((3,4-dihydro-2H-benzo[b][1,4]oxazin-5-yl)methyl)piperidin-2-yl)methoxy)-1-oxoisoindolin-2-yl)piperidine-2,6-dione]	–	–	20 nM	78.7%	21.3%
CCN1CCOc2cccc(CN3CCCC[C@@H]3COc3ccc4c(c3)CN(C3CCC(=O)NC3=O)C4=O)c21 (stereo partly drawn) [Compound I-179, 3-(5-(((R)-1-((4-ethyl-3,4-dihydro-2H-benzo[b][1,4]oxazin-5-yl)methyl)piperidin-2-yl)methoxy)-1-oxoisoindolin-2-yl)piperidine-2,6-dione]	73.9%	26.1%	5.7 nM	–	–
O=C1CCC(N2Cc3cc(OC[C@H]4CCCCN4Cc4cccc5c4NC(=O)CO5)ccc3C2=O)C(=O)N1 (stereo partly drawn) [Compound I-180, 3-(1-oxo-5-(((R)-1-((3-oxo-3,4-dihydro-2H-benzo[b][1,4]oxazin-5-yl)methyl)piperidin-2-yl)methoxy)isoindolin-2-yl)piperidine-2,6-dione]	–	–	20 nM	15.3%	84.7%
O=C1CCC(N2Cc3cc(OC[C@H]4CCCCN4CCOCc4ccccc4)ccc3C2=O)C(=O)N1 (stereo partly drawn) [Compound I-183, 3-(5-(((R)-1-(2-(benzyloxy)ethyl)piperidin-2-yl)methoxy)-1-oxoisoindolin-2-yl)piperidine-2,6-dione]	–	–	4 nM	86.1%	13.9%
O=C1CCC(N2Cc3cc(OC[C@H]4CCCCN4Cc4ccc5c(c4)OC(F)(F)O5)ccc3C2=O)C(=O)N1 (some centres unmarked) [Compound I-184]	–	–	0.47 nM	92.7%	7.28%
O=C1CCC(N2Cc3cc(OC[C@H]4CCCCN4Cc4ccc(N5CCOCC5)nc4)ccc3C2=O)C(=O)N1 (stereo partly drawn) [Compound I-186, 3-(5-(((R)-1-((6-morpholinopyridin-3-yl)methyl)piperidin-2-yl)methoxy)-1-oxoisoindolin-2-yl)piperidine-2,6-dione]	–	–	4.3 nM	80.8%	19.1%
O=C1CCC(N2Cc3cc(OC[C@H]4CCCCN4Cc4ccc(C5=CCOCC5)cc4)ccc3C2=O)C(=O)N1 (stereo partly drawn) [Compound I-188, 3-(5-(((R)-1-(4-(3,6-dihydro-2H-pyran-4-yl)benzyl)piperidin-2-yl)methoxy)-1-oxoisoindolin-2-yl)piperidine-2,6-dione]	–	–	0.35 nM	86.6%	13.4%
CC(C)(C)OC(=O)N1CCN(c2ccc(CN3CCCC[C@@H]3COc3ccc4c(c3)CN(C3CCC(=O)NC3=O)C4=O)cn2)CC1 (stereo partly drawn) [Compound I-189, Tert-butyl 4-(5-(((2R)-2-(((2-(2,6-dioxopiperidin-3-yl)-1-oxoisoindolin-5-yl)oxy)methyl)piperidin-1-yl)methyl)pyridin-2-yl)piperazine-1-carboxylate]	–	–	4.3 nM	73.2%	26.8%
CCN1CCN(c2ccc(CN3CCCC[C@@H]3COc3ccc4c(c3)CN(C3CCC(=O)NC3=O)C4=O)cn2)CC1 (stereo partly drawn) [Compound I-191, 3-(5-(((R)-1-((6-(4-ethylpiperazin-1-yl)pyridin-3-yl)methyl)piperidin-2-yl)methoxy)-1-oxoisoindolin-2-yl)piperidine-2,6-dione]	–	–	150 nM	67.2%	32.9%
COc1cc(CN2CCCC[C@@H]2COc2ccc3c(c2)CN(C2CCC(=O)NC2=O)C3=O)ccc1C#N (some centres unmarked) [Compound I-192]	–	–	25 nM	62.2%	37.8%
O=C1CCC(N2Cc3cc(OC[C@H]4CCCCN4Cc4ccc5[nH]cnc5c4)ccc3C2=O)C(=O)N1 (some centres unmarked) [Compound I-193]	–	–	490 nM	55.7%	44.3%
COc1ccc(CN2CCCC[C@@H]2COc2ccc3c(c2)CN(C2CCC(=O)NC2=O)C3=O)cc1C#N (stereo partly drawn) [Compound I-196, 5-(((2R)-2-(((2-(2,6-dioxopiperidin-3-yl)-1-oxoisoindolin-5-yl)oxy)methyl)piperidin-1-yl)methyl)-2-methoxybenzonitrile]	–	–	4.2 nM	78.8%	21.2%
O=C1CCC(N2Cc3cc(OC[C@H]4CCCCN4Cc4ccc(C5CCN(CC6CCOCC6)CC5)cc4)ccc3C2=O)C(=O)N1 (stereo partly drawn) [Compound I-197, 3-(1-oxo-5-(((R)-1-(4-(1-((tetrahydro-2H-pyran-4-yl)methyl)piperidin-4-yl)benzyl)piperidin-2-yl)methoxy)isoindolin-2-yl)piperidine-2,6-dione]	–	–	56 nM	51.8%	48.2%
O=C1CCC(N2Cc3cc(OC[C@H]4CCCCN4Cc4ccc(C5CCN(CCF)CC5)cc4)ccc3C2=O)C(=O)N1 (stereo partly drawn) [Compound I-198, 3-(5-(((R)-1-(4-(1-(2-fluoroethyl)piperidin-4-yl)benzyl)piperidin-2-yl)methoxy)-1-oxoisoindolin-2-yl)piperidine-2,6-dione]	–	–	13 nM	68%	32%
O=C1CCC(N2Cc3cc(OC[C@H]4CCCCN4Cc4ccc5ocnc5c4)ccc3C2=O)C(=O)N1 (stereo partly drawn) [Compound I-201, 3-(5-(((R)-1-(benzo[d]oxazol-5-ylmethyl)piperidin-2-yl)methoxy)-1-oxoisoindolin-2-yl)piperidine-2,6-dione]	–	–	19 nM	80.5%	19.5%
O=C1CCC(N2Cc3cc(OC[C@H]4CCCCN4CC4COC4)ccc3C2=O)C(=O)N1 (some centres unmarked) [Compound I-202]	–	–	83 nM	58.7%	41.3%
O=C1CCC(N2Cc3cc(OC[C@H]4CCCCN4Cc4ccc(C5CCN(CC6COC6)CC5)cc4)ccc3C2=O)C(=O)N1 (stereo partly drawn) [Compound I-203, 3-(5-(((R)-1-(4-(1-(oxetan-3-ylmethyl)piperidin-4-yl)benzyl)piperidin-2-yl)methoxy)-1-oxoisoindolin-2-yl)piperidine-2,6-dione]	–	–	0.92 nM	67.5%	32.5%
O=C1CCC(N2Cc3cc(OC[C@H]4CCCCN4CC4CC4)ccc3C2=O)C(=O)N1 (stereo partly drawn) [Compound I-214, 3-(5-(((R)-1-(cyclopropylmethyl)piperidin-2-yl)methoxy)-1-oxoisoindolin-2-yl)piperidine-2,6-dione]	–	–	32 nM	82.8%	17.1%
COC1CCC(CN2CCCCC2C(C)Oc2ccc3c(c2)CN(C2CCC(=O)NC2=O)C3=O)CC1 (centres unmarked) [Compound I-217, 3-(5-(1-(1-((4-methoxycyclohexyl)methyl)piperidin-2-yl)ethoxy)-1-oxoisoindolin-2-yl)piperidine-2,6-dione]	–	–	–	0.4%	99.6%
CCN1[C@@H]2CC[C@@H](C2)[C@H]1COc1ccc2c(c1)CN(C1CCC(=O)NC1=O)C2=O (stereo partly drawn) [Compound I-223, 3-(5-(((1R,3S,4S)-2-ethyl-2-azabicyclo[2.2.1]heptan-3-yl)methoxy)-1-oxoisoindolin-2-yl)piperidine-2,6-dione]	–	–	72 nM	82.8%	17.1%
CC(C)N1CCN(c2ccc(CN3CCCC[C@@H]3COc3ccc4c(c3)CN(C3CCC(=O)NC3=O)C4=O)cc2)CC1 (stereo partly drawn) [Compound I-227, 3-(5-(((R)-1-(4-(4-isopropylpiperazin-1-yl)benzyl)piperidin-2-yl)methoxy)-1-oxoisoindolin-2-yl)piperidine-2,6-dione]	64.2%	35.8%	58 nM	–	–
